Reference: US20220251096A1, “7,8-DIHYDRO-4H-PYRAZOLO[4,3-c]AZEPINE-6-ONE COMPOUNDS” (Eli Lilly and Company, priority 2019, published 2022)

Key:
MDA-MIB-453 = experiment: Cell growth inhibition assay, MDA-MIB-453; type: cell-based; conditions: 168 h; MDA-MIB-453, 7 days
Experimental: (§1) Tumor cell lines are plated onto 96-well, black wall poly-D-lysine plates (Corning #354640), and incubated at 37° C., 5% CO2 for 18-24 hours. Compound was added at 1:3 dilutions in DMSO and cells were incubated at 37° C., 5% CO2 for 7 days. For adherent cell lines, cells were fixed and stained with propidium iodide and scanned on Acumen (channel 3 setting). For suspension cell lines, cell growth was monitored using Cell Titer-Glo reagent.

SKNO-1 (AML1-ETO) = experiment: Cell growth inhibition assay, SKNO-1 (AML1-ETO); type: cell-based; conditions: 168 h, 7 days
Experimental: as §1

OCI-AML2 = experiment: Cell growth inhibition assay, OCI-AML2; type: cell-based; conditions: Homo sapiens, 168 h; OCI-AML2, 7 days
Experimental: as §1

GDM1 = experiment: Cell growth inhibition assay, GDM1; type: cell-based; conditions: Homo sapiens, GDM-1, 168 h; GDM1, 7 days
Experimental: as §1

BRD4 (BD1, BD2) = target: T1, BRD4 (BD1, BD2) (Homo sapiens, UniProt O60885); experiment: BromoKdELECT platform assay, BRD4 (BD1, BD2); type: binding; conditions: 11 points dose-response, mean from a duplicate experiment
T1 construct: BRD4 (Bromodomain 1 (BD1) and Bromodomain 2 (BD2)); purchased DiscoverX (BromoKdELECT service)
From the text: (§2) The purpose of this assay is to evaluate the in vitro target engagement and selectivity (https://www.discoverx.com/services/drug-discovery-development-services/epigenetic-profiling/bromoscan-epigenetic-profiling/bromokdelect). Assay measurement is based on the amount of bromodomain captured in test and control samples by using quantitative PCR technology that detects the DNA label associated to bromodomain. Compounds that bind the bromodomain active site prevents its binding to the immobilized ligand and will reduce the amount of bromodomain captured on the solid support. […] Thus, compound activity is monitored by measuring the amount of bromodomain captured in test versus control samples by using qPCR. Binding affinity for test compound-bromodomain interactions are calculated by measuring the amount of bromodomain captured on the solid support as a function of the test compound concentration.
(§3) Binding affinity (Kd) of the compounds of Examples 1 and 2 towards CREBBP, EP300 and BRD4 (Bromodomain 1 (BD1) and Bromodomain 2 (BD2)) are determined in an 11 points dose-response study (See Table 5). Data is represented as a mean from a duplicate experiment.

CREBBP [1] = target: T2, CREBBP (Homo sapiens, UniProt Q92793); experiment: BromoKdELECT platform assay, CREBBP; type: binding; parameters: purchased DiscoverX (BromoKdELECT service); conditions: 11 points dose-response, mean from a duplicate experiment
From the text: as §2, §3

EP300 = target: T3, EP300 (Homo sapiens, UniProt Q09472); experiment: NanoBRET assay, EP300 bromodomain; type: cell-based; parameters: NanoLuc-EP300-BD (Promega, 0.0002 μg); host or cells: HEK293; conditions: NanoBRET in HEK293 cells, read after 4 hours incubation; mean ± Standard Deviation
T3 sequence (Q09472 1049-1156 limits assumed): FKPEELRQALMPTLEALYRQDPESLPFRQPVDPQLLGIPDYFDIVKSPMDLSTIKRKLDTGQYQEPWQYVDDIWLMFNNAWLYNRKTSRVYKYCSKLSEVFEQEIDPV
Experimental: (§4) HEK293 cells are seeded at 10×10^6 cells/16 mL in DMEM+10% FBS in a T-75 flask and left to attach for 4-6 hours. Transfection reagents are diluted in Opti-MEM media (no phenol red, no FBS) and 8% Fugene HD containing expression plasmids at a final concentration of the following: 1: Histone H3.3 HaloTag DNA (Promega, 0.02 μg)+NanoLuc-CREBBP-BD (Promega, 0.0002 μg); 2: Histone H3.3 HaloTag DNA (Promega, 0.02 μg)+NanoLuc-EP300-BD (Promega, 0.0002 μg); 3: Histone H4 HaloTag DNA (0.02 μg)+NanLuc-BRD4 Full Length (Promega, 0.0002 μg). The DNA/Fugene mixtures are left at RT for 10 minutes. Transfection mix (800 μL) is added per flask and immediately swirled to cover the cells. The plates are returned to the incubator for overnight transfection. The next day, HaloTag NanoBRET 618 ligand (20 μL/vial of 0.1 mM) is thawed at RT. […]
(§5) Compound is serially diluted and added to 96-well plates (2 10 mM, 3-fold dilutions, 100% DMSO). […] CREBBP/EP300 plates are read after 4 hours incubation and the BRD4 plates are read after overnight incubation. To develop plates for reading, allow all reagents to reach RT before use. […] The plate is shaken for 1 minute to mix and within 10 minutes, read on Envision plate reader with the following settings: Mirror: Luminescence; Emission filter: E600LP; 2nd emission filter: D460/50; Measurement height (mm): 6.5; Measurement time (s): 0.2 second.

CREBBP [2] = target: T2, CREBBP; experiment: NanoBRET assay, CREBBP bromodomain; type: cell-based; parameters: NanoLuc-CREBBP-BD (Promega, 0.0002 μg); host or cells: HEK293; conditions: NanoBRET in HEK293 cells, read after 4 hours incubation; mean ± Standard Deviation
Experimental: as §4, §5

T2 sequence (Q92793 1085-1192 limits assumed): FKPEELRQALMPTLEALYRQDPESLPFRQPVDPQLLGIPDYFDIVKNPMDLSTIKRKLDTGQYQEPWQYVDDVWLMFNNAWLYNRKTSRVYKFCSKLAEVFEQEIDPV

IC50 (SKNO-1 (AML1-ETO)): 18 nM
IC50 (OCI-AML2): 207 nM
Kd (BRD4 (BD1, BD2)): 7400 nM
Kd (CREBBP [1]): 0.325 nM
IC50 (EP300): 26.1 ± 16.5 nM
IC50 (CREBBP [2]): 18.6 ± 4.09 nM
Compound: CCNC(=O)c1ccc(-c2cc3cccc(-c4nn(C)c5c4CN(C)C(=O)CC5)c3cn2)cn1 [Example 2, 5-[8-(1,5-Dimethyl-6-oxo-7,8-dihydro-4H-pyrazolo[4,3-c]azepin-3-yl)-3-isoquinolyl]-N-ethyl-pyridine-2-carboxamide]
IC50 (MDA-MIB-453): 35 nM
IC50 (GDM1): 280 nM
